Laboratory results: PMC11847541, “Liver fatty acid binding protein FABP1 transfers substrates to cytochrome P450 4A11 for catalysis” (The Journal of Biological Chemistry, 2025)

Tests used:
DAUDA–FABP1 = target: T1, DAUDA–FABP1 (Homo sapiens, UniProt P07148); experiment: Stopped-flow kinetics of palmitate binding to DAUDA–FABP1
T1 construct: GST (N, cleaved yes); made in house; host or cells: Escherichia coli DH5α
T1 sequence (P07148 with tags, fused parts or gaps): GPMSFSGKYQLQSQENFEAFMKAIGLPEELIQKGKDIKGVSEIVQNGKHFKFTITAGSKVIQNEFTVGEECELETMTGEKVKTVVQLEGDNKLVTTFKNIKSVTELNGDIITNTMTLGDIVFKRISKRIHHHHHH
Method: As mentioned previously, palmitate was selected to measure binding kinetics to DAUDA–FABP1 because of the low Kd observed with the protein (Fig. 5D, Table 1). When a ligand binds to DAUDA-bound FABP1, DAUDA is displaced (potentially to the second ligand-binding site, forming a ternary complex; Figure 2, Figure 5 and Figure 2, Figure 5A) and attenuates the fluorescence of the system (Fig. 5). Taking advantage of this phenomenon, we preincubated FABP1 (0.5 μM) with DAUDA (0.5 μM) to form the fluorescent complex. This complex was then rapidly mixed with palmitate (0.5 μM to 25 μM), and the attenuation of fluorescence was monitored as palmitate binds and displaces DAUDA. The data were fit to double exponential equations, and the rate of initial binding was not observed to vary with palmitate concentration (Fig. 7). A kon value (k5) of 2.3 ± 0.2 × 10^7 M^−1 s^−1 was calculated from the data (Fig. 7A).
Figure 7 Kinetics of binding of palmitate to FABP1. A stoichiometric mixture of DAUDA and FABP1 (0.5 μM) was rapidly combined with (A) 0.5 μM, (B) 5 μM, (C) 12.5 μM, and (D) 25 μM palmitate, and the attenuation of fluorescence (λex = 335 nm, λem > 420 nm) was monitored over time (as FD → FDS, Fig. 5A). The plots were fit to double exponential equations, and the following rate constants for each phase were extracted: A, k1 11 ± 1 s^−1, k2 0.04 ± 0.003 s^−1; B, k1 16± 1s^−1, k2 0.017 ± 0.004 s^−1; C, k1 14 ± 1 s^−1, k2 0.05 ± 0.01 s^−1; D, k1 13 ± 1 s^−1, k2 0.07 ± 0.01 s^−1. Each trace corresponds to ≥6 averaged replicate traces. DAUDA, 11-dansylaminoundecanoic acid; FABP1, fatty acid binding protein.
The kon determination of FABP1 with palmitate was done in the same manner as described with DAUDA but with the modification that the solutions mixed in the stopped-flow spectrofluorometer were (A) FABP1 (1 μM) and DAUDA (1 μM, aliquoted from a stock solution prepared in K2CO3 [50 mM], see “Preparation of DAUDA stock solutions”) and (B) palmitate (1–50 μM, aliquoted from a stock solution prepared in K2CO3 [50 mM]). Both mixing solutions (2 ml) were prepared in potassium phosphate buffer (100 mM, pH 7.4). The data collection, processing, and analysis proceeded via the same steps described earlier. The only difference in interpretation is that the signal (binding of palmitate) displaces DAUDA in the FABP1-binding site, so we observe an attenuation of fluorescence.

FABP1 = target: T2, FABP1 (Homo sapiens, UniProt P07148); parameters: method as in PMID 10852718; details: ADIFAB system; cited from earlier work
T2 construct: GST (N, cleaved yes); made in house; host or cells: Escherichia coli DH5α
T2 sequence (P07148 with tags, fused parts or gaps): T1 sequence (P07148 with tags, fused parts or gaps)

[1] = parameters: method as in PMID 2335507; details: cited from earlier work

| Compound | k1 (fast phase), palmitate binding to DAUDA–FABP1 (DAUDA–FABP1; 0.5 μM palmitate) | k2 (slow phase), palmitate binding to DAUDA–FABP1 (DAUDA–FABP1; 0.5 μM palmitate) | k1 (fast phase), palmitate binding to DAUDA–FABP1 (DAUDA–FABP1; 5 μM palmitate) | k2 (slow phase), palmitate binding to DAUDA–FABP1 (DAUDA–FABP1; 5 μM palmitate) | k1 (fast phase), palmitate binding to DAUDA–FABP1 (DAUDA–FABP1; 12.5 μM palmitate) | k2 (slow phase), palmitate binding to DAUDA–FABP1 (DAUDA–FABP1; 12.5 μM palmitate) | k1 (fast phase), palmitate binding to DAUDA–FABP1 (DAUDA–FABP1; 25 μM palmitate) | k2 (slow phase), palmitate binding to DAUDA–FABP1 (DAUDA–FABP1; 25 μM palmitate) | kon (DAUDA–FABP1; DAUDA and FABP1 0.5 μM each, read-out: kon of palmitate to DAUDA–FABP1 (k5)) | Kd (FABP1) | rate of FABP1 lipid transfer to phospholipid membranes [1] |
| --- | --- | --- | --- | --- | --- | --- | --- | --- | --- | --- | --- |
| CCCCCCCCCCCCCCCC(=O)O [Palmitate (C16), palmitate] | 11 ± 1 s⁻¹ | 0.04 ± 0.003 s⁻¹ | 16 ± 1 s⁻¹ | 0.017 ± 0.004 s⁻¹ | 14 ± 1 s⁻¹ | 0.05 ± 0.01 s⁻¹ | 13 ± 1 s⁻¹ | 0.07 ± 0.01 s⁻¹ | 2.3e+07 M⁻¹ s⁻¹ | 60 nM | – |
| FABP1: delipidated recombinant liver fatty acid binding protein with C-terminal hexahistidine tag | – | – | – | – | – | – | – | – | – | – | ~0.005 s⁻¹ |
